This note sets out measurements from patent US12378249B2, “Isoquinoline compounds and uses thereof” (Genentech, Inc., priority 2018, dated 2025).

HPK1, sequence (Q92918 whole entry T165E/S171E): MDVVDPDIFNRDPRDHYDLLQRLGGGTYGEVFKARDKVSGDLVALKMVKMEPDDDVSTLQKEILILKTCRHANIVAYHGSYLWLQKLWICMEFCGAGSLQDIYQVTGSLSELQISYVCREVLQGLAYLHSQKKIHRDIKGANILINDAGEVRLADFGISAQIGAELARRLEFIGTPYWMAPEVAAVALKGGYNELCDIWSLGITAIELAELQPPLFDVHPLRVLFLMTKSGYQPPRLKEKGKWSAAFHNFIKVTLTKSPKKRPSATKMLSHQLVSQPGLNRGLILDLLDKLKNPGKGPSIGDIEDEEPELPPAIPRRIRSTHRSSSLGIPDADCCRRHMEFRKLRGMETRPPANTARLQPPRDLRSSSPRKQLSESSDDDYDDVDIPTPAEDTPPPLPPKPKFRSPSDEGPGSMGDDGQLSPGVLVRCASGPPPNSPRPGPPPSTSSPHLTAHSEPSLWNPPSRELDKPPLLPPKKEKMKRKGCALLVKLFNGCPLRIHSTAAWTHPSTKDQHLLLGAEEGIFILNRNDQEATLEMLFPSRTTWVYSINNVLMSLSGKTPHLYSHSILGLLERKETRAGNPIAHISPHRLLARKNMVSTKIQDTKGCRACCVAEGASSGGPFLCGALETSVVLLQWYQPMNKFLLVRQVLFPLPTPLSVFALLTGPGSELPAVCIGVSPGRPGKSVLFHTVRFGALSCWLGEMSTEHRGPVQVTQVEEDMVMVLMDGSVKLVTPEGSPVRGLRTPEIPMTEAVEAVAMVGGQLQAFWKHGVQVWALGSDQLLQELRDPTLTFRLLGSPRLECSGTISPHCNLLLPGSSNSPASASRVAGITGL

The target of this assay is HPK1 (Homo sapiens (Human), UniProt Q92918, S171E/T165E). In words: HPK1-FL HTRF Enzymatic Assay (HTRF). It is filed as biochemical. The conditions noted are these: HPK full length T165E S171E 0.125 nM, ATP 1 mM, Biotin-SLP76 100 nM, read-out: HPK1 Ki (nM), H = HTRF. In outline:
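Full-length HPK1 double mutant, preincubated 30 min with compound, then phosphorylates Biotin-SLP-76 at 1 mM ATP for 60 min in HEPES pH 7.5/MgCl2/TCEP/Brij-35 buffer. Phospho-product detected by TR-FRET (Eu-anti-pSLP76, SA-XL665) after 60 min; 665/620 ratio gives % activity, from which Ki is determined.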
In general terms: TR-FRET usually uses a lanthanide donor and a delayed reading to cut background.
Regarding `CNCc1cncc(-c2cc3cc(Nc4cc5n(n4)CC(=O)N(C)CC5)ncc3cc2F)c1C` [Compound 210, 2-((7-fluoro-6-(4-methyl-5-((methylamino)methyl)pyridin-3-yl)isoquinolin-3-yl)amino)-6-methyl-5,6-dihydro-4H-pyrazolo[1,5-d][1,4]diazepin-7(8H)-one], the Ki (commonly a measure of affinity in units of concentration, obtained from inhibition or displacement) is 37 nM.
The result for `Cc1c(CN)cncc1-c1cc2cc(Nc3cc4n(n3)CC(=O)N(C)CC4)ncc2cc1F` [Compound 211, 2-((6-(5-(aminomethyl)-4-methylpyridin-3-yl)-7-fluoroisoquinolin-3-yl)amino)-6-methyl-5,6-dihydro-4H-pyrazolo[1,5-d][1,4]diazepin-7(8H)-one] reads 19 nM; that for `Cc1cc(CN)ncc1-c1cc2cc(Nc3cc4n(n3)CC(=O)N(C)CC4)ncc2cc1F` [Compound 212, 2-((6-(6-(aminomethyl)-4-methylpyridin-3-yl)-7-fluoroisoquinolin-3-yl)amino)-6-methyl-5,6-dihydro-4H-pyrazolo[1,5-d][1,4]diazepin-7(8H)-one], 50 nM.
In the case of `Cc1cc(CN)ccc1-c1cc2cc(Nc3cc4n(n3)CC(=O)N(C)CC4)ncc2cc1F` [Compound 213, 2-((6-(4-(aminomethyl)-2-methylphenyl)-7-fluoroisoquinolin-3-yl)amino)-6-methyl-5,6-dihydro-4H-pyrazolo[1,5-d][1,4]diazepin-7(8H)-one], the Ki stood at 25 nM.
Turning to `CN1CCc2cc(Nc3cc4cc(-c5cccc6c5CNC6)c(F)cc4cn3)nn2CC1=O` [Compound 215, 2-((7-fluoro-6-(isoindolin-4-yl)isoquinolin-3-yl)amino)-6-methyl-5,6-dihydro-4H-pyrazolo[1,5-d][1,4]diazepin-7(8H)-one], the inhibitory constant (Ki) was determined as 364 nM.
The result for `Cc1c(N)cnnc1-c1cc2cc(Nc3cc4n(n3)CC(=O)N(C)CC4)ncc2cc1F` [Compound 216, 2-((6-(5-amino-4-methylpyridazin-3-yl)-7-fluoroisoquinolin-3-yl)amino)-6-methyl-5,6-dihydro-4H-pyrazolo[1,5-d][1,4]diazepin-7(8H)-one] reads 2.3 nM.
As to `CNCc1cccc(-c2cc3cc(Nc4cc5n(n4)CC(=O)N(C)CC5)ncc3cc2F)c1C` [Compound 217, 2-((7-fluoro-6-(2-methyl-3-((methylamino)methyl)phenyl)isoquinolin-3-yl)amino)-6-methyl-5,6-dihydro-4H-pyrazolo[1,5-d][1,4]diazepin-7(8H)-one], the Ki stood at 64 nM.
The result for `CNCc1ccc(F)c(-c2ccc3cnc(Nc4cc5n(n4)CC(=O)N(C)CC5)cc3c2)c1C` [Compound 219, 2-((6-(6-fluoro-2-methyl-3-((methylamino)methyl)phenyl)isoquinolin-3-yl)amino)-6-methyl-5,6-dihydro-4H-pyrazolo[1,5-d][1,4]diazepin-7(8H)-one] reads 7 nM.
For `CNCc1cc(-c2ccc3cnc(Nc4cc5n(n4)CC(=O)N(C)CC5)cc3c2)c(F)cc1C` [Compound 220, 2-((6-(2-fluoro-4-methyl-5-((methylamino)methyl)phenyl)isoquinolin-3-yl)amino)-6-methyl-5,6-dihydro-4H-pyrazolo[1,5-d][1,4]diazepin-7(8H)-one], the Ki amounted to 176 nM.
The result for `Cc1c(-c2cc3cc(Nc4cc5n(n4)CC(=O)N(C)CC5)ncc3cc2F)ccc2c1CNC2` [Compound 221, 2-((7-fluoro-6-(4-methylisoindolin-5-yl)isoquinolin-3-yl)amino)-6-methyl-5,6-dihydro-4H-pyrazolo[1,5-d][1,4]diazepin-7(8H)-one] reads 97 nM; that for `CNCc1cc(C)c(-c2ccc3cnc(Nc4cc5n(n4)CC(=O)N(C)CC5)cc3c2)c(F)c1` [Compound 222, 2-((6-(2-fluoro-6-methyl-4-((methylamino)methyl)phenyl)isoquinolin-3-yl)amino)-6-methyl-5,6-dihydro-4H-pyrazolo[1,5-d][1,4]diazepin-7(8H)-one], 5.2 nM.
For `Cc1c(-c2c(F)cc3cnc(Nc4cc5n(n4)CC(=O)N(C)CC5)cc3c2F)cnc2c1NCCO2` [Compound 223, 2-((5,7-difluoro-6-(8-methyl-2,3-dihydro-1H-pyrido[2,3-b][1,4]oxazin-7-yl)isoquinolin-3-yl)amino)-6-methyl-5,6-dihydro-4H-pyrazolo[1,5-d][1,4]diazepin-7(8H)-one], the Ki worked out at 0.04 nM.
The result for `Cc1c(N)cncc1-c1cc2cc(Nc3cc4n(n3)CC(=O)NCC43CC3)ncc2cc1F` [Compound 224, 2′-((6-(5-amino-4-methylpyridin-3-yl)-7-fluoroisoquinolin-3-yl)amino)-5′,6′-dihydrospiro[cyclopropane-1,4′-pyrazolo[1,5-d][1,4]diazepin]-7′(8′H)-one] reads 0.013 nM; that for `Cc1c(N)cncc1-c1cc(F)c2cnc(Nc3cc4n(n3)CC(=O)NCC43CC3)cc2c1` [Compound 225, 2′-((6-(5-amino-4-methylpyridin-3-yl)-8-fluoroisoquinolin-3-yl)amino)-5′,6′-dihydrospiro[cyclopropane-1,4′-pyrazolo[1,5-d][1,4]diazepin]-7′(8′H)-one], 0.013 nM.
The result for `CN1CCc2cc(Nc3cc4cc(-c5cncc(N)c5C(F)(F)F)c(F)cc4cn3)nn2CC1=O` [Compound 227, 2-((6-(5-amino-4-(trifluoromethyl)pyridin-3-yl)-7-fluoroisoquinolin-3-yl)amino)-6-methyl-5,6-dihydro-4H-pyrazolo[1,5-d][1,4]diazepin-7(8H)-one] reads 0.29 nM; that for `Cc1c(-c2cc3cc(Nc4cc5n(n4)CC(=O)NCC5)ncc3cc2F)cnc2c1NCCOC2` [Compound 230, 2-((7-fluoro-6-(9-methyl-1,2,3,5-tetrahydropyrido[3,2-e][1,4]oxazepin-8-yl)isoquinolin-3-yl)amino)-5,6-dihydro-4H-pyrazolo[1,5-d][1,4]diazepin-7(8H)-one], 0.793 nM.
On to `Cc1c(-c2cc3cc(Nc4cc5n(n4)CC(=O)N(C)CC5)ncc3cc2F)cnc2c1CNCCO2` [Compound 232, 2-((7-fluoro-6-(6-methyl-2,3,4,5-tetrahydropyrido[3,2-f][1,4]oxazepin-7-yl)isoquinolin-3-yl)amino)-6-methyl-5,6-dihydro-4H-pyrazolo[1,5-d][1,4]diazepin-7(8H)-one], for which the Ki is 11 nM.
The result for `Cc1ncc(-c2cc(F)c3cnc(Nc4cc5n(n4)CC(=O)NCC5)cc3c2)c(C)c1N` [Compound 233, 2-((6-(5-amino-4,6-dimethylpyridin-3-yl)-8-fluoroisoquinolin-3-yl)amino)-5,6-dihydro-4H-pyrazolo[1,5-d][1,4]diazepin-7(8H)-one] reads 0.155 nM.
The result for `Cc1c(CC#N)cncc1-c1cc(F)c2cnc(Nc3cc4n(n3)CC(=O)NCC4)cc2c1` [Compound 238, 2-(5-(8-fluoro-3-((7-oxo-5,6,7,8-tetrahydro-4H-pyrazolo[1,5-d][1,4]diazepin-2-yl)amino)isoquinolin-6-yl)-4-methylpyridin-3-yl)acetonitrile] reads 0.076 nM; that for `Cc1c(NCC(F)(F)F)cncc1-c1cc2cc(Nc3cc4n(n3)CC(=O)NCC4)ncc2cc1F` [Compound 239, 2-((7-fluoro-6-(4-methyl-5-((2,2,2-trifluoroethyl)amino)pyridin-3-yl)isoquinolin-3-yl)amino)-5,6-dihydro-4H-pyrazolo[1,5-d][1,4]diazepin-7(8H)-one], 0.062 nM.
`Cc1c(-c2cc3cc(Nc4cc5n(n4)CC(=O)N(C)CC5)ncc3cc2F)cnc2c1NCC(C)(C)C2=O` [Compound 240, 2-((7-fluoro-6-(4,7,7-trimethyl-8-oxo-5,6,7,8-tetrahydro-1,5-naphthyridin-3-yl)isoquinolin-3-yl)amino)-6-methyl-5,6-dihydro-4H-pyrazolo[1,5-d][1,4]diazepin-7(8H)-one]: the Ki turned out to be 0.014 nM.
Consider `Cc1c(-c2cc3cc(Nc4cc5n(n4)CC(=O)N(C)OC5)ncc3cc2F)cnc2c1NCCO2` [Compound 244, 2-((7-fluoro-6-(8-methyl-2,3-dihydro-1H-pyrido[2,3-b][1,4]oxazin-7-yl)isoquinolin-3-yl)amino)-6-methyl-4H,6H-pyrazolo[1,5-e][1,2,5]oxadiazepin-7(8H)-one], for which the Ki is 0.013 nM.
